# Patent US8617906B2, “Identification and screening of triptolide target molecules” (priority 2004, dated 2013)
# Columns and labels:
# HSP 90β (PG771) = biological target: T1, HSP 90β (PG771) (Homo sapiens, UniProt P08238); test: Isolation of proteins binding 3H-triptolide in Jurkat cells (FPLC, 2D gel, fluorography, MALDI-MS); conditions: 3H-labeled compound incubated with Jurkat cells
# T1 construct: Jurkat cells from expanding cultures were labeled with; endogenous in cells; host or cells: Jurkat
# T1 sequence (P08238 whole entry): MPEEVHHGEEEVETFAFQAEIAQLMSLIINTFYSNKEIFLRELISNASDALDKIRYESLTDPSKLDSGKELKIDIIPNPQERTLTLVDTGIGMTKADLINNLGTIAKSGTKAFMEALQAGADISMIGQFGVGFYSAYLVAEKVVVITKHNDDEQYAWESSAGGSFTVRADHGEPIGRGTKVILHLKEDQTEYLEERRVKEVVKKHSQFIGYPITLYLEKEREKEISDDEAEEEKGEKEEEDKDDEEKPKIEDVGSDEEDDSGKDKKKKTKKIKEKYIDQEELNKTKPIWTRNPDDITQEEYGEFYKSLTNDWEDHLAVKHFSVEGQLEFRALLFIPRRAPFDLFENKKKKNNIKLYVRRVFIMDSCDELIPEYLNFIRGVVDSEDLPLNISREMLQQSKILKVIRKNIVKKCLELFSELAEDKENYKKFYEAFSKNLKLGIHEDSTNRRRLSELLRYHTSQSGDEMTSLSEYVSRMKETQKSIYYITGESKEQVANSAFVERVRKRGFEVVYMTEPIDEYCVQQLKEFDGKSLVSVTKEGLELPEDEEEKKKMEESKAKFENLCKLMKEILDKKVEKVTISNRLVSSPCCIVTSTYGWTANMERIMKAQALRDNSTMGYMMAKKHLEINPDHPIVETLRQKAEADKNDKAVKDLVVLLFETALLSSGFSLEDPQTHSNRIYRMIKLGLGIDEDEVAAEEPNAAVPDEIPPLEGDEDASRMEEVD
# Experimental: Triptolide target molecules were isolated and identified by purification and identification of molecules that bind ^3H-triptolide. Jurkat cells from expanding cultures were labeled with ^3H-triptolide by cultivation at 37° C. with 5% CO2 for a period of time between a few hours and overnight (usually 6-7 hours) and harvested by centrifugation and washing in ice-cold phosphate buffered saline. The cells (usually 1-3×10^6/ml) were generally labeled with ^3H-triptolide to a final concentration of 35 nM (100 μCi/200 ml of medium). […]
# The cells were extracted with M-per buffer (Pierce) and homogenized in presence of a protease inhibitor cocktail, sometimes including other reagents such as deoxyribonuclease (DNase). […] When the extracts components were found not to be sufficiently purified, enriched or reduced in number, 2D gel electrophoresis was employed, followed by fluorography for ^3H-associated radioactivity detection, and MALDI/MS of the corresponding peptides (after proteolysis) and peptide fingerprinting. […]
# MALDI-MS peptide fingerprinting analysis identified HSP 90β (PG771) in fraction #4 and L-plastin (PG772) in fraction #9. […] A positive spot on the film (fluorographically positive, therefore positive for ^3H-associated radioactivity) was seen near the 29 kDa protein marker. […]
# p53 pathway = conditions: cited from earlier work
# [1] = tested on: human T cell lymphoma (Jurkat) cells; conditions: cited from earlier work
compound,measurement,setting,value
CC(C)[C@]12O[C@H]1[C@@H]1O[C@]13[C@]1(O[C@H]1C[C@H]1C4=C(CC[C@@]13C)C(=O)OC4)[C@@H]2O [triptolide],3H-associated protein identified as triptolide target: HSP 90β,HSP 90β (PG771),identified
same,cell cycle arrest induced by p21 after p53 activation,p53 pathway,inhibiting the cell cycle arrest induced by p21 after p53 activation
same,cytotoxicity,[1],cytotoxicity in human T cell lymphoma (Jurkat) cells
